Values joined by “and” are separate entries in the source; they are usually repeats but may differ in a detail not shown here. Equal values may be shown once. Toxic doses and inconclusive results are not listed. The calls were made as follows: active = survival T/C of 150% or more; inactive = T/C below 125% in these data.
Tested on: CD2F1 mice, L1210 leukemia ip, survival T/C
Experiment: NCI In Vivo Anticancer Drug Screen. Data for tumor model L1210 Leukemia (intraperitoneal) in CD2F1 (CDF1) mice
Details: higher = longer survival
How it was run: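 Transplantable tumor in mice; compound-treated vs vehicle-treated groups. Read-out = treated/control ratio of the measured endpoint.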

[1] = endpoint: mean survival time, dose: 100.0 mg/kg/injection, schedule: Q04DX003 (ip), vehicle: saline with Tween-80
[2] = endpoint: mean survival time, dose: 200.0 mg/kg/injection, schedule: Q04DX003 (ip), vehicle: saline with Tween-80
[3] = endpoint: mean survival time, dose: 400.0 mg/kg/injection, schedule: Q04DX003 (ip), vehicle: saline with Tween-80
[4] = endpoint: mean survival time, dose: 50.0 mg/kg/injection, schedule: Q01DX009 (ip), vehicle: Klucel (hydroxypropylcellulose) (HPC)
[5] = endpoint: mean survival time, dose: 100.0 mg/kg/injection, schedule: Q04DX002 (ip), vehicle: saline with Tween-80
[6] = endpoint: mean survival time, dose: 200.0 mg/kg/injection, schedule: Q04DX002 (ip), vehicle: saline with Tween-80
[7] = endpoint: mean survival time, dose: 400.0 mg/kg/injection, schedule: Q04DX002 (ip), vehicle: saline with Tween-80
[8] = endpoint: mean survival time, dose: 100.0 mg/kg/injection, schedule: Q01DX001 (ip), vehicle: saline with Tween-80
[9] = endpoint: mean survival time, dose: 200.0 mg/kg/injection, schedule: Q01DX001 (ip), vehicle: saline with Tween-80
[10] = endpoint: mean survival time, dose: 400.0 mg/kg/injection, schedule: Q01DX001 (ip), vehicle: saline with Tween-80

Measured: T/C

CCc1c(C)c(=O)n(C)c2ccccc12
inactive: [1] 98 % of control | [2] 101 % of control | [3] 102 % of control

CCCCCCCCN(c1ccc(C(=O)NC(CCC(=O)OCC)C(=O)OCC)cc1)S(=O)(=O)c1ccc(C)cc1 (stereo unspecified)
inactive: endpoint: mean survival time, dose: 12.5 mg/kg/injection, schedule: Q04DX003 (ip), vehicle: saline with Tween-80 94 % of control | endpoint: mean survival time, dose: 25.0 mg/kg/injection, schedule: Q04DX003 (ip), vehicle: saline with Tween-80 100 % of control | endpoint: mean survival time, dose: 50.0 mg/kg/injection, schedule: Q04DX003 (ip), vehicle: saline with Tween-80 102 % of control | [1] 86 % of control | [2] 86 % of control | [3] 87 % of control

CN1CCC(=C(C#N)c2ccccc2)CC1
inactive: endpoint: mean survival time, dose: 12.5 mg/kg/injection, schedule: Q01DX009 (ip), vehicle: saline 100 % of control | endpoint: mean survival time, dose: 25.0 mg/kg/injection, schedule: Q01DX009 (ip), vehicle: saline 102 % of control

OC1CCCC2CCCNC12 (stereo unspecified)
inactive: endpoint: mean survival time, dose: 1.25 mg/kg/injection, schedule: Q01DX009 (ip), vehicle: Klucel (hydroxypropylcellulose) (HPC) 109 % of control | endpoint: mean survival time, dose: 3.12 mg/kg/injection, schedule: Q01DX009 (ip), vehicle: saline with Tween-80 98 % of control | endpoint: mean survival time, dose: 6.25 mg/kg/injection, schedule: Q01DX009 (ip), vehicle: saline with Tween-80 88 % of control | endpoint: mean survival time, dose: 12.5 mg/kg/injection, schedule: Q01DX009 (ip), vehicle: saline with Tween-80 103 % of control | endpoint: mean survival time, dose: 25.0 mg/kg/injection, schedule: Q01DX009 (ip), vehicle: Klucel (hydroxypropylcellulose) (HPC) 107 % of control | endpoint: mean survival time, dose: 25.0 mg/kg/injection, schedule: Q01DX009 (ip), vehicle: saline with Tween-80 104 % of control | [4] 98 % of control | endpoint: mean survival time, dose: 50.0 mg/kg/injection, schedule: Q01DX009 (ip), vehicle: saline with Tween-80 110 % of control

CCCCCCCCCCOc1ccc(Cl)cc1Cl
inactive: [5] 101 % of control | [6] 101 % of control | [7] 90 % of control

CC(=O)Oc1cccc2c1C(=O)C1(O)C(C=O)=CC3OC(C)(C)OC2(C)C31 (stereo unspecified)
inactive: endpoint: mean survival time, dose: 75.0 mg/kg/injection, schedule: Q01DX001 (ip), vehicle: other 102 % of control | endpoint: mean survival time, dose: 150.0 mg/kg/injection, schedule: Q01DX001 (ip), vehicle: other 108 % of control | endpoint: mean survival time, dose: 300.0 mg/kg/injection, schedule: Q01DX001 (ip), vehicle: other 103 % of control

CN=C(N)N/N=C(\C)c1ccc2c(c1)Cc1cc(/C(C)=N/NC(N)=NC)ccc1-2
inactive: endpoint: median survival time, dose: 0.37 mg/kg/injection, schedule: Q01DX009 (ip), vehicle: saline with Tween-80 118 % of control and 124 % of control | endpoint: median survival time, dose: 3.0 mg/kg/injection, schedule: Q01DX009 (ip), vehicle: saline with Tween-80 121 % of control | endpoint: median survival time, dose: 6.0 mg/kg/injection, schedule: Q01DX009 (ip), vehicle: saline with Tween-80 92 % of control and 95 % of control

CCCCCCCC/C=C\CCCCCCCC(=O)OCCCCCCCC
inactive: [5] 95 % of control | [6] 95 % of control | [7] 102 % of control

O=c1[nH]c2cnn(-c3ccccc3)c2[nH]1
inactive: [8] 97 % of control | [9] 97 % of control | [10] 93 % of control

Cc1ccc(S(=O)(=O)OC2CCSCC2)cc1
inactive: endpoint: mean survival time, dose: 100.0 mg/kg/injection, schedule: Q01DX001 (ip), vehicle: saline 102 % of control | endpoint: mean survival time, dose: 200.0 mg/kg/injection, schedule: Q01DX001 (ip), vehicle: saline 94 % of control | endpoint: mean survival time, dose: 400.0 mg/kg/injection, schedule: Q01DX001 (ip), vehicle: saline 94 % of control

COc1ccc(/C=C/c2ccc3ccccc3[n+]2C)c(OC)c1OC
inactive: endpoint: mean survival time, dose: 5.0 mg/kg/injection, schedule: Q01DX009 (ip), vehicle: saline 98 % of control | endpoint: mean survival time, dose: 10.0 mg/kg/injection, schedule: Q01DX009 (ip), vehicle: saline 86 % of control

COc1ccc(C2NN(C)C3(O)C(=O)N(C4CCCCC4)CC23)cc1 (stereo unspecified)
inactive: [8] 107 % of control | [9] 94 % of control | [10] 96 % of control

Cc1ccc(S(=O)(=O)OC(c2ccccc2)C(F)(F)F)cc1 (stereo unspecified)
inactive: [8] 100 % of control | [9] 103 % of control | [10] 94 % of control

Cc1cc(N(CCCl)CCCl)ccc1C=Nc1cccnc1
inactive: [4] 101 % of control | endpoint: mean survival time, dose: 100.0 mg/kg/injection, schedule: Q01DX009 (ip), vehicle: Klucel (hydroxypropylcellulose) (HPC) 106 % of control | endpoint: mean survival time, dose: 200.0 mg/kg/injection, schedule: Q01DX009 (ip), vehicle: Klucel (hydroxypropylcellulose) (HPC) 110 % of control | endpoint: mean survival time, dose: 400.0 mg/kg/injection, schedule: Q01DX009 (ip), vehicle: Klucel (hydroxypropylcellulose) (HPC) 112 % of control

CC1(C)CC2(C)OC2C2(C1)N=NC(=Nc1ccccc1)O2 (stereo unspecified)
inactive: endpoint: median survival time, dose: 25.0 mg/kg/injection, schedule: Q01DX009 (ip), vehicle: saline with Tween-80 110 % of control | endpoint: median survival time, dose: 50.0 mg/kg/injection, schedule: Q01DX009 (ip), vehicle: saline with Tween-80 102 % of control

Source: PubChem BioAssay AID256 (DTP/NCI, 2004)
